From article PMC3222680 (PLoS ONE, 2011)

How the values were obtained:
Assay type in all cases: cell-based
αWT α-βK24′A GlyR = target: T1, αWT α-βK24′A GlyR (Homo sapiens, UniProt P23415+P48167, A277S/G282P/I253M/I257A/I264V/I268L/K322A/L252M/M248V/M255V/M274P/P278A/Q254G/S259T/Y250F)
T1 construct: The α R218-Q219 and β R242-Q243 are also the joining sites for chimeras constructed between the ECD and TMD; expressed in transfected cells; host or cells: HEK293 (ATCC)
Procedure: (§1) The human GlyR α1 and β subunit cDNAs were subcloned into the pcDNA3.1zeo+ (Invitrogen) or pGEMHE [44] plasmid vectors for expression in HEK293 cells or Xenopus oocytes, respectively. Site-directed mutagenesis and chimera construction were performed using the QuickChange (Stratagene, La Jolla, CA, USA) mutagenesis and multiple-template-based sequential PCR protocols, respectively.
(§2) The effects of the hyperekplexia-mimicking mutations, K24′A, V25′A and Y27′A, were examined on GlyRs expressed in HEK293 cells (ATCC). Details of the HEK293 cell culture, GlyR expression and electrophysiological recording of the HEK293 cells are described elsewhere. Briefly, HEK293 cells were maintained in DMEM supplemented with 10% fetal bovine serum. Cells were transfected using a calcium phosphate precipitation protocol. When co-transfecting the α1 together with the β or any other chimera subunits, their respective cDNAs were combined in a ratio of 1∶10. In addition, the pEGFP-N1 (Clontech) was co-transfected to facilitate identifying the transfected cells. […] Cells were treated with external Ringer's solution and internal CsCl solution [30]. Cells were voltage-clamped at −40 mV. When the heteromeric GlyRs were expressed, the picrotoxin sensitivity was tested to confirm that the majority of receptors are heteromers, [30].
(§3) Results are expressed as mean±standard error of the mean of three or more independent experiments. […] Statistical significance was determined using the Student's t-test.

αR19′A βWT GlyR = target: T2, αR19′A βWT GlyR (Homo sapiens, UniProt P23415+P48167, R299A)
T2 construct: expressed in transfected cells; host or cells: HEK293 (ATCC)
Procedure: as §1, §2, §3

αWT αB-βV25′A GlyR = target: T3, αWT αB-βV25′A GlyR (Homo sapiens, UniProt P23415+P48167, A165S/A240V/A277S/A80Q/E245R/G282P/H243T/I181K/I238V/I253M/I257A/I264V/I268L/K171T/L252M/M168L/M248V/M255V/M274P/N172L/P278A/Q254G/R241I/S259T/T179R/V177T/V323A/Y250F)
T3 construct: expressed in transfected cells; host or cells: HEK293 (ATCC)
T3 sequence (P23415 29-449 isoform P23415-2, stated change not applied): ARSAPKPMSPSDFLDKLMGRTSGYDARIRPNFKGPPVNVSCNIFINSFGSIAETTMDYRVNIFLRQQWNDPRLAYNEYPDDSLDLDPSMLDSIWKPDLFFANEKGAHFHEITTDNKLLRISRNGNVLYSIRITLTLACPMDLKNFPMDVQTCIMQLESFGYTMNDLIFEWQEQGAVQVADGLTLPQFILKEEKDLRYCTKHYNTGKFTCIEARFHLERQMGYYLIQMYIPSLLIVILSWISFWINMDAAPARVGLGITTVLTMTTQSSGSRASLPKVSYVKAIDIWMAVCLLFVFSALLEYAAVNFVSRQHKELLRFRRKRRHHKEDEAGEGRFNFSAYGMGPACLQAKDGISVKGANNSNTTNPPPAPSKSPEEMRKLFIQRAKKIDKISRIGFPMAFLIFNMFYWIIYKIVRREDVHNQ
T3 sequence (P23415+P48167 fused with the stated changes): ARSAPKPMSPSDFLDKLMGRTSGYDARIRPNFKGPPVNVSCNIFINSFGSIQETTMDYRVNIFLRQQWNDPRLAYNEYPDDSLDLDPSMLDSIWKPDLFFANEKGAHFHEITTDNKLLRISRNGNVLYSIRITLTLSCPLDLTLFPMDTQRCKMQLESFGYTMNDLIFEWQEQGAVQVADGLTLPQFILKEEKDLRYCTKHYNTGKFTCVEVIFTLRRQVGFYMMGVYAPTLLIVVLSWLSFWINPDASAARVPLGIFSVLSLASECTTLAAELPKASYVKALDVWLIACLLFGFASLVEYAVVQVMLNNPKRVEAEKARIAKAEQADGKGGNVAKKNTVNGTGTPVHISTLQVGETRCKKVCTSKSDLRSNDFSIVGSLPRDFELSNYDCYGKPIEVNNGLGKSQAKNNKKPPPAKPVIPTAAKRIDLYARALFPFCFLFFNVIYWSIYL
Procedure: as §1, §2, §3

αWT α-βV25′A GlyR = target: T4, αWT α-βV25′A GlyR (Homo sapiens, UniProt P23415+P48167, A277S/G282P/I253M/I257A/I264V/I268L/L252M/M248V/M255V/M274P/P278A/Q254G/S259T/V323A/Y250F)
T4 construct: The α R218-Q219 and β R242-Q243 are also the joining sites for chimeras constructed between the ECD and TMD; expressed in transfected cells; host or cells: HEK293 (ATCC)
Procedure: as §1, §2, §3

αV25′A βWT GlyR = target: T5, αV25′A βWT GlyR (Homo sapiens, UniProt P23415+P48167, V305A)
T5 construct: expressed in transfected cells; host or cells: HEK293 (ATCC)
T5 sequence (P23415 29-449 isoform P23415-2 V305A limits assumed): as the sequence (P23415 29-449 isoform P23415-2, stated change not applied) above, with V277A counted along it
T5 sequence (P48167 23-497): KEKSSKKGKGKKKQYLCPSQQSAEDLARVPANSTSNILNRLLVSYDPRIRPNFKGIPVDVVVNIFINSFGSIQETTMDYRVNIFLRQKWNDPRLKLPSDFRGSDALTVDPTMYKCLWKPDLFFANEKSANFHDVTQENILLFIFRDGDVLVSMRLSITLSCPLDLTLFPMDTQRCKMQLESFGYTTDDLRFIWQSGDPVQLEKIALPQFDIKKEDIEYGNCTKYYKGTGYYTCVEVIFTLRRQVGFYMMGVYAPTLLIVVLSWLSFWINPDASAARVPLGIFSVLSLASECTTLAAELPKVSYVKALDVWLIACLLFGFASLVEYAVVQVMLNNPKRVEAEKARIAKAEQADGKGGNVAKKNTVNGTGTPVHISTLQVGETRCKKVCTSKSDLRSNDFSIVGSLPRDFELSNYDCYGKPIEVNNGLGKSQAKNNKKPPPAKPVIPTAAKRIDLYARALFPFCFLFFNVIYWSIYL
Procedure: as §1, §2, §3

αWT αT-βV25′A GlyR = target: T6, αWT αT-βV25′A GlyR (Homo sapiens, UniProt P23415+P48167, I259R/K198I/L185M/L189N/Q95A/R196T/R263E/S182A/T188K/T194V/T261H/V256I/V258A/V323A)
T6 construct: expressed in transfected cells; host or cells: HEK293 (ATCC)
T6 sequence (P23415 29-449 isoform P23415-2, stated change not applied): as the sequence (P23415 29-449 isoform P23415-2, stated change not applied) above
T6 sequence (P48167 23-497 Q95A/S182A/L185M/T188K/L189N/T194V/R196T/K198I/V256I/V258A/I259R/T261H/R263E/V323A): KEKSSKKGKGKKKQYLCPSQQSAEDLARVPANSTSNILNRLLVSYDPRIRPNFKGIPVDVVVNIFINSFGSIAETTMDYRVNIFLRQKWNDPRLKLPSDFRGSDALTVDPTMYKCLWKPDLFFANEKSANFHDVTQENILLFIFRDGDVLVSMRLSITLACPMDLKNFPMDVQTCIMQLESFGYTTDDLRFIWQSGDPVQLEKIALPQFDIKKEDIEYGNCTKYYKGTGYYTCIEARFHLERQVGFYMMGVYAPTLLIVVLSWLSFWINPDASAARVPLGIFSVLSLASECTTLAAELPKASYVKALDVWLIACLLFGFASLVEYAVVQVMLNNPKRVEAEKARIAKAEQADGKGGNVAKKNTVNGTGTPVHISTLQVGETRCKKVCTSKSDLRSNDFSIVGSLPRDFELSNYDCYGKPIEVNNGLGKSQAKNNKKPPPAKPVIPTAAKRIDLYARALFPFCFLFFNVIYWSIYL
Procedure: as §1, §2, §3

αV25′A α-βWT GlyR = target: T7, αV25′A α-βWT GlyR (Homo sapiens, UniProt P23415+P48167, V305A)
T7 construct: The α R218-Q219 and β R242-Q243 are also the joining sites for chimeras constructed between the ECD and TMD; expressed in transfected cells; host or cells: HEK293 (ATCC)
T7 sequence (P23415 29-449 isoform P23415-2 V305A): as the sequence (P23415 29-449 isoform P23415-2, stated change not applied) above, with V277A counted along it
T7 sequence (P23415+P48167 fused with the stated changes): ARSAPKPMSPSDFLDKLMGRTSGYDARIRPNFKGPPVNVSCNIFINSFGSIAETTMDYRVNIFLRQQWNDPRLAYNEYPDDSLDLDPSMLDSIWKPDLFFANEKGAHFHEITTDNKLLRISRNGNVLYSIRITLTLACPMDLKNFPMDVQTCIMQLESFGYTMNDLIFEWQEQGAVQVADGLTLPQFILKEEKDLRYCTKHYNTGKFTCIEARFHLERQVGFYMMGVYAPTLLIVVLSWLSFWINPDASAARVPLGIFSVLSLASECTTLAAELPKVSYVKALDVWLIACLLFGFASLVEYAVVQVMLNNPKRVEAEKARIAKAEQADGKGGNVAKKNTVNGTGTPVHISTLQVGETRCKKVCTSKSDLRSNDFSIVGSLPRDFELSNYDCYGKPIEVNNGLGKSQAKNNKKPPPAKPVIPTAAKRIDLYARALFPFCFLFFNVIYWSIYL
Procedure: as §1, §2, §3

αK24′A βWT GlyR = target: T8, αK24′A βWT GlyR (Homo sapiens, UniProt P23415+P48167, K304A)
T8 construct: expressed in transfected cells; host or cells: HEK293 (ATCC)
Procedure: as §1, §2, §3

αWT αT-βWT GlyR = target: T9, αWT αT-βWT GlyR (Homo sapiens, UniProt P23415+P48167, I259R/K198I/L185M/L189N/Q95A/R196T/R263E/S182A/T188K/T194V/T261H/V256I/V258A)
T9 construct: expressed in transfected cells; host or cells: HEK293 (ATCC)
T9 sequence (P23415 29-449 isoform P23415-2, stated change not applied): as the sequence (P23415 29-449 isoform P23415-2, stated change not applied) above
T9 sequence (P48167 23-497 Q95A/S182A/L185M/T188K/L189N/T194V/R196T/K198I/V256I/V258A/I259R/T261H/R263E): as the sequence (P48167 23-497 Q95A/S182A/L185M/T188K/L189N/T194V/R196T/K198I/V256I/V258A/I259R/T261H/R263E/V323A) above, with A301V counted along it
Procedure: as §1, §2, §3

αWT βK24′A GlyR = target: T10, αWT βK24′A GlyR (Homo sapiens, UniProt P23415+P48167, K322A)
T10 construct: expressed in transfected cells; host or cells: HEK293 (ATCC)
Procedure: as §1, §2, §3

αWT α-βWT GlyR = target: T11, αWT α-βWT GlyR (Homo sapiens, UniProt P23415+P48167, A277S/A316I/A325S/DEL290-297/G282P/I253M/I257A/I264V/I268L/I311L/I313V/INS301ECTTLAAE/L252M/L327V/M248V/M255V/M274P/M315L/P278A/Q254G/R299L/S259T/S324A/T286F/T287S/V317A/V322G/Y250F)
T11 construct: The α R218-Q219 and β R242-Q243 are also the joining sites for chimeras constructed between the ECD and TMD; expressed in transfected cells; host or cells: HEK293 (ATCC)
Procedure: as §1, §2, §3

αWT βWT GlyR = target: T12, αWT βWT GlyR (Homo sapiens, UniProt P23415+P48167)
T12 construct: expressed in transfected cells; host or cells: HEK293 (ATCC)
Procedure: as §1, §2, §3

αR19′A βA19′R GlyR = target: T13, αR19′A βA19′R GlyR (Homo sapiens, UniProt P23415+P48167, A317R/R299A)
T13 construct: expressed in transfected cells; host or cells: HEK293 (ATCC)
Procedure: as §1, §2, §3

[1] = αWT α-βK24′A, HEK293, with glycine at EC50 of α1 homomer
[2] = αR19′A βWT, HEK293, with glycine at EC50 of α1 homomer
[3] = αWT αB-βV25′A, HEK293, with glycine at EC50 of α1 homomer
[4] = αWT α-βV25′A, HEK293, with glycine at EC50 of α1 homomer
[5] = αV25′A βWT, HEK293, with glycine at EC50 of α1 homomer
[6] = αWT αT-βV25′A, HEK293, with glycine at EC50 of α1 homomer
[7] = αV25′A α-βWT, HEK293, with glycine at EC50 of α1 homomer
[8] = αK24′A βWT, HEK293, with glycine at EC50 of α1 homomer
[9] = αWT αT-βWT, HEK293, with glycine at EC50 of α1 homomer
[10] = αWT βK24′A, HEK293, with glycine at EC50 of α1 homomer
[11] = αWT α-βWT, HEK293, with glycine at EC50 of α1 homomer
[12] = αWT βWT, HEK293, with glycine at EC50 of α1 homomer
[13] = αR19′A βA19′R, HEK293, with glycine at EC50 of α1 homomer

Compound: picrotoxin [PTX]
- 10uM PTX inhibition (%) (αWT α-βK24′A GlyR; [1]): 5.6±1.0%
- 100uM PTX inhibition (%) (αWT α-βK24′A GlyR; [1]): 35±4%
- 10uM PTX inhibition (%) (αR19′A βWT GlyR; [2]): 2.8±2.1%
- 100uM PTX inhibition (%) (αR19′A βWT GlyR; [2]): 20±9%
- 10uM PTX inhibition (%) (αWT αB-βV25′A GlyR; [3]): 8.9±2.4%
- 100uM PTX inhibition (%) (αWT αB-βV25′A GlyR; [3]): 43±3%
- 10uM PTX inhibition (%) (αWT α-βV25′A GlyR; [4]): 3.0±1.3%
- 100uM PTX inhibition (%) (αWT α-βV25′A GlyR; [4]): 34±4%
- 10uM PTX inhibition (%) (αV25′A βWT GlyR; [5]): 4.7±0.7%
- 100uM PTX inhibition (%) (αV25′A βWT GlyR; [5]): 38±3%
- 10uM PTX inhibition (%) (αWT αT-βV25′A GlyR; [6]): 8.5±1.8%
- 100uM PTX inhibition (%) (αWT αT-βV25′A GlyR; [6]): 36±3%
- 10uM PTX inhibition (%) (αV25′A α-βWT GlyR; [7]): 2.9±0.8%
- 100uM PTX inhibition (%) (αV25′A α-βWT GlyR; [7]): 21±5%
- 10uM PTX inhibition (%) (αK24′A βWT GlyR; [8]): 2.2±1.1%
- 100uM PTX inhibition (%) (αK24′A βWT GlyR; [8]): 20±5%
- 10uM PTX inhibition (%) (αWT αT-βWT GlyR; [9]): 3.2±0.6%
- 100uM PTX inhibition (%) (αWT αT-βWT GlyR; [9]): 25±6%
- 10uM PTX inhibition (%) (αWT βK24′A GlyR; [10]): 6.0±1.2%
- 100uM PTX inhibition (%) (αWT βK24′A GlyR; [10]): 35±3%
- 10uM PTX inhibition (%) (αWT α-βWT GlyR; [11]): 3.8±2.2%
- 100uM PTX inhibition (%) (αWT α-βWT GlyR; [11]): 25±2%
- 10uM PTX inhibition (%) (αWT βWT GlyR; [12]): 8.5±1.8%
- 100uM PTX inhibition (%) (αWT βWT GlyR; [12]): 33±9%
- 10uM PTX inhibition (%) (αR19′A βA19′R GlyR; [13]): 4.2±1.7%
- 100uM PTX inhibition (%) (αR19′A βA19′R GlyR; [13]): 22±8%

Compound: NCC(=O)O [glycine]
- Imax (αWT α-βK24′A GlyR): 8.0±1.8 nA
- nH (αWT α-βK24′A GlyR): 1.5±0.2
- Imax (αR19′A βWT GlyR): 3.9±1.3 nA
- nH (αR19′A βWT GlyR): 2.5±0.3
- Imax (αWT αB-βV25′A GlyR): 9.8±4.9 nA
- nH (αWT αB-βV25′A GlyR): 2.2±0.3
- Imax (αWT α-βV25′A GlyR): 7.6±1.7 nA
- nH (αWT α-βV25′A GlyR): 1.3±0.1
- Imax (αV25′A βWT GlyR): 7.4±2.8 nA
- nH (αV25′A βWT GlyR): 1.4±0.2
- Imax (αWT αT-βV25′A GlyR): 14±3.0 nA
- nH (αWT αT-βV25′A GlyR): 2.3±0.1
- Imax (αV25′A α-βWT GlyR): 8.2±1.4 nA
- nH (αV25′A α-βWT GlyR): 0.92±0.04
- Imax (αK24′A βWT GlyR): 6.3±1.1 nA
- nH (αK24′A βWT GlyR): 1.8±0.2
- Imax (αWT αT-βWT GlyR): 12.0±1.6 nA
- nH (αWT αT-βWT GlyR): 2.0±0.1
- Imax (αWT βK24′A GlyR): 5.4±1.0 nA
- nH (αWT βK24′A GlyR): 1.5±0.3
- Imax (αWT α-βWT GlyR): 4.3±0.7 nA
- nH (αWT α-βWT GlyR): 1.3±0.3
- Imax (αWT βWT GlyR): 4.3±1.2 nA
- nH (αWT βWT GlyR): 2.0±0.4
- Imax (αR19′A βA19′R GlyR): 5.5±0.9 nA
- nH (αR19′A βA19′R GlyR): 2.1±0.2
